Measured values published in patent US11077090B2, “Compounds and compositions and uses thereof” (Sunovion Pharmaceuticals Inc., priority 2016, dated 2021).

System: compound-treated mice
Test: Neuropharmacological assay (SmartCube): behavioral activity signature and minimal effective dose
Format: in vivo
Conditions: for minimal effective dose: Mus musculus, ip, MED = dose having 50% or more total activity, read-out: Potency: minimal effective dose (MED), binned; for AD: ADHD (probability of activity signature) / AG: analgesic (probability of activity signature) / AX: anxiolytic (probability of activity signature) / CE: cognitive enhancer (probability of activity signature) / DP: anti-depressant (probability of activity signature) / MS: mood stabilizer (probability of activity signature) / PS: anti-psychotic (probability of activity signature) / SD: sedative hypnotic (probability of activity signature) / UN: uncharacterized CNS activity (probability of activity signature): i.p. 15 min before test, most efficacious dose(s)
Outline: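 Mice dosed i.p. 15 min before test, compound in N-methyl-2-pyrrolidone/PEG/propylene glycol, 3 doses; video-captured behavior matched to reference-drug signatures, giving per-class probabilities at most efficacious dose. MED from doses typically 0.3–30 mpk, defined as lowest dose with ≥50% total activity.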

Structure (SMILES)	minimal effective dose [mg/kg]	AD: ADHD (probability of activity signature)	AG: analgesic (probability of activity signature)	AX: anxiolytic (probability of activity signature)	CE: cognitive enhancer (probability of activity signature)	DP: anti-depressant (probability of activity signature)	MS: mood stabilizer (probability of activity signature)	PS: anti-psychotic (probability of activity signature)	SD: sedative hypnotic (probability of activity signature)	UN: uncharacterized CNS activity (probability of activity signature)
Cc1ccc2c(c1)[C@H](N)[C@@H](C(C)C)OC2 [Example 210]	3 to 10	+ (LOQ ≤ + <5%)	++ (5% ≤ ++ <25%)	++ (5% ≤ ++ <25%)	++ (5% ≤ ++ <25%)	+ (LOQ ≤ + <5%)	+ (LOQ ≤ + <5%)	+ (LOQ ≤ + <5%)	+ (LOQ ≤ + <5%)	++++ (50% ≤ ++++)
Cc1ccc2c(c1)[C@H](N)[C@H](C(C)C)OC2 [Example 211]	3 to 10	+ (LOQ ≤ + <5%)	+ (LOQ ≤ + <5%)	++ (5% ≤ ++ <25%)	+ (LOQ ≤ + <5%)	++ (5% ≤ ++ <25%)	+ (LOQ ≤ + <5%)	++ (5% ≤ ++ <25%)	+++ (25% ≤ +++ <50%)	++++ (50% ≤ ++++)
C[C@H]1OCc2c(F)cccc2[C@@H]1N.Cl [Example 214]	3 to 10	++ (5% ≤ ++ <25%)	++ (5% ≤ ++ <25%)	++ (5% ≤ ++ <25%)	++ (5% ≤ ++ <25%)	++ (5% ≤ ++ <25%)	+ (LOQ ≤ + <5%)	++ (5% ≤ ++ <25%)	++ (5% ≤ ++ <25%)	++++ (50% ≤ ++++)
C[C@@H]1OCc2c(F)cccc2[C@@H]1N.Cl [Example 215]	3 to 10	+ (LOQ ≤ + <5%)	++ (5% ≤ ++ <25%)	+++ (25% ≤ +++ <50%)	++ (5% ≤ ++ <25%)	++ (5% ≤ ++ <25%)	+ (LOQ ≤ + <5%)	++ (5% ≤ ++ <25%)	++ (5% ≤ ++ <25%)	++++ (50% ≤ ++++)
C[C@H]1OCc2cccc(F)c2[C@@H]1N.Cl [Example 216]	3 to 10	+ (LOQ ≤ + <5%)	++ (5% ≤ ++ <25%)	++ (5% ≤ ++ <25%)	+ (LOQ ≤ + <5%)	++ (5% ≤ ++ <25%)	+ (LOQ ≤ + <5%)	+ (LOQ ≤ + <5%)	+ (LOQ ≤ + <5%)	++++ (50% ≤ ++++)
C[C@@H]1OCc2cccc(F)c2[C@@H]1N.Cl [Example 217]	10 to 30	+ (LOQ ≤ + <5%)	+ (LOQ ≤ + <5%)	+++ (25% ≤ +++ <50%)	++ (5% ≤ ++ <25%)	++ (5% ≤ ++ <25%)	+ (LOQ ≤ + <5%)	++ (5% ≤ ++ <25%)	+ (LOQ ≤ + <5%)	++++ (50% ≤ ++++)
CCc1ccc2c(c1)[C@H](N)[C@H](C)OC2.Cl [Example 219]	3 to 10	+ (LOQ ≤ + <5%)	++ (5% ≤ ++ <25%)	++ (5% ≤ ++ <25%)	++ (5% ≤ ++ <25%)	+ (LOQ ≤ + <5%)	+ (LOQ ≤ + <5%)	+ (LOQ ≤ + <5%)	+ (LOQ ≤ + <5%)	++++ (50% ≤ ++++)
CCc1ccc2c(c1)[C@H](N)[C@@H](C)OC2.Cl [Example 220]	3 to 10	+ (LOQ ≤ + <5%)	++ (5% ≤ ++ <25%)	++++ (50% ≤ ++++)	++ (5% ≤ ++ <25%)	+ (LOQ ≤ + <5%)	+ (LOQ ≤ + <5%)	+ (LOQ ≤ + <5%)	+ (LOQ ≤ + <5%)	++++ (50% ≤ ++++)
Cc1ccc2c(c1)[C@@H](C)OC[C@H]2N [Example 221]	3 to 10	+ (LOQ ≤ + <5%)	+ (LOQ ≤ + <5%)	++ (5% ≤ ++ <25%)	+ (LOQ ≤ + <5%)	++ (5% ≤ ++ <25%)	+ (LOQ ≤ + <5%)	++ (5% ≤ ++ <25%)	+ (LOQ ≤ + <5%)	++++ (50% ≤ ++++)
Cc1ccc2c(c1)[C@H](C)OC[C@H]2N [Example 222]	3 to 10	+ (LOQ ≤ + <5%)	+ (LOQ ≤ + <5%)	++ (5% ≤ ++ <25%)	+ (LOQ ≤ + <5%)	+ (LOQ ≤ + <5%)	+ (LOQ ≤ + <5%)	+ (LOQ ≤ + <5%)	+ (LOQ ≤ + <5%)	++++ (50% ≤ ++++)
CC(C)C[C@@H]1OCc2ccccc2[C@@H]1N [Example 223]	3 to 10	+ (LOQ ≤ + <5%)	+ (LOQ ≤ + <5%)	++ (5% ≤ ++ <25%)	+ (LOQ ≤ + <5%)	++ (5% ≤ ++ <25%)	+ (LOQ ≤ + <5%)	+ (LOQ ≤ + <5%)	++ (5% ≤ ++ <25%)	+++ (25% ≤ +++ <50%)
CC(C)C[C@H]1OCc2ccccc2[C@@H]1N [Example 224]	10 to 30	+ (LOQ ≤ + <5%)	++ (5% ≤ ++ <25%)	++ (5% ≤ ++ <25%)	+++ (25% ≤ +++ <50%)	+ (LOQ ≤ + <5%)	+ (LOQ ≤ + <5%)	+ (LOQ ≤ + <5%)	++ (5% ≤ ++ <25%)	++ (5% ≤ ++ <25%)
Cc1ccc(Cl)c2c1[C@H](N)[C@H](C)OC2.Cl [Example 225]	3 to 10	+ (LOQ ≤ + <5%)	++ (5% ≤ ++ <25%)	++ (5% ≤ ++ <25%)	++ (5% ≤ ++ <25%)	++ (5% ≤ ++ <25%)	+ (LOQ ≤ + <5%)	++ (5% ≤ ++ <25%)	++ (5% ≤ ++ <25%)	++++ (50% ≤ ++++)
Cc1cccc2c1[C@H](N)CO[C@@H]2C [Example 226]	10 to 30	+ (LOQ ≤ + <5%)	+ (LOQ ≤ + <5%)	++ (5% ≤ ++ <25%)	++ (5% ≤ ++ <25%)	++ (5% ≤ ++ <25%)	+ (LOQ ≤ + <5%)	+++ (25% ≤ +++ <50%)	+ (LOQ ≤ + <5%)	++ (5% ≤ ++ <25%)
Cc1cccc2c1[C@H](N)CO[C@H]2C [Example 227]	3 to 10	+ (LOQ ≤ + <5%)	++ (5% ≤ ++ <25%)	++ (5% ≤ ++ <25%)	+ (LOQ ≤ + <5%)	+ (LOQ ≤ + <5%)	+ (LOQ ≤ + <5%)	++ (5% ≤ ++ <25%)	+ (LOQ ≤ + <5%)	++++ (50% ≤ ++++)
